From paper PMC5522529, “Mechanisms of Paradoxical Activation of AMPK by the Kinase Inhibitors SU6656 and Sorafenib” (Cell Chemical Biology, 2017)

What was measured:
AMPK [1] = test: AMPK activation in HeLa cells transfected with GFP-LKB1 WT, FF or FFF mutants; assay type: cell-based, human; conditions: HeLa cells expressing GFP-LKB1 WT, not with GFP control
Experimental: (§1) Top: AMPK activity (mean ± SEM, n = 4); bottom: western blots showing phosphorylation of Thr172 on AMPK, and of ERK1/2, in cells treated with DMSO (control), SU6656 (100 μM), or PP2 (100 nM) (n = 2). (B) As (A), but in SYF cells. (C) HeLa cells were transfected with DNAs encoding GFP alone, or GFP fused to WT, Y261F/Y365F (FF), or Y36F/Y261F/Y365F (FFF) mutants of LKB1; cells were treated with increasing concentrations of SU6656 for 1 hr and AMPK activity determined (mean ± SEM, n = 4). See also Figure S1. (D) HEK293 cells were transfected with DNAs encoding FLAG-tagged AMPK-α2 with or without a Y436F mutation. Cells were incubated with DMSO (control), 100 μM SU6656, 10 mM phenformin, or 10 μM A23187 for 1 hr; AMPK complexes were immunoprecipitated using anti-FLAG antibody and assayed. The top panels show kinase activities (mean ± SD, n = 3); the bottom panels show blots from the same experiment (n = 2). In all panels, asterisks indicate significant differences from DMSO controls; in (D), there were no significant differences between the WT and Y463F mutant. **p < 0.01, ****p < 0.0001.
We next transiently transfected DNAs encoding GFP, or GFP-tagged wild-type (WT), Y261F/Y365F (FF), or Y36F/Y261F/Y365F (FFF) mutants of LKB1 into HeLa cells, which lack endogenous LKB1.

AMPK [2] = assay type: cell-based, mouse; conditions: SYF cells, 1 hr
Experimental: We next tested the effect of SU6656 in SYF cells, which are mouse embryo fibroblasts (MEFs) with null alleles for Src, Yes, and Fyn, the three Src kinases expressed in MEFs ([Klinghoffer et al., 1999]).
as §1, with “0.0001. […]” for “0.0001.”

AMPK-α1 AT mutant = target: T1, AMPK-α1 AT mutant (Homo sapiens, UniProt Q13131, A167T); test: AMPK activity of FLAG-tagged AMPK-α1 AT mutant expressed in HEK293 cells; assay type: cell-based; conditions: AT mutant FLAG-α1, 1 hr
T1 construct: we expressed FLAG-tagged full-length AMPK-α1 either as the WT or the AT mutant; expressed in transfected cells; host or cells: HEK293 (transient transfection)
T1 sequence (Q13131 whole entry A167T): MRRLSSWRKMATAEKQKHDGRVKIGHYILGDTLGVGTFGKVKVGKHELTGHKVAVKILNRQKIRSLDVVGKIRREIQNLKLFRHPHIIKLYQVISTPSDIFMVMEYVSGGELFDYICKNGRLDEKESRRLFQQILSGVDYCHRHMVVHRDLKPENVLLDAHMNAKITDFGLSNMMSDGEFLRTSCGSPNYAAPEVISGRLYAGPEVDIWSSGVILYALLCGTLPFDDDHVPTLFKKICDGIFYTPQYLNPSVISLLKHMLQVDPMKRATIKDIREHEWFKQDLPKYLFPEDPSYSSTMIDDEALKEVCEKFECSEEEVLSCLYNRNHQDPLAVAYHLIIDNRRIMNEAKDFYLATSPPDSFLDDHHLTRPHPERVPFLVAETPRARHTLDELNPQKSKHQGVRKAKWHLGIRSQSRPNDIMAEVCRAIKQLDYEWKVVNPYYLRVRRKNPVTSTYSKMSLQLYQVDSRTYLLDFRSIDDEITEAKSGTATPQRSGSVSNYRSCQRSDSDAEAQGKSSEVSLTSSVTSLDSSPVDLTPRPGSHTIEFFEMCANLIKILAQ
T1 sequence (P54619 whole entry partner): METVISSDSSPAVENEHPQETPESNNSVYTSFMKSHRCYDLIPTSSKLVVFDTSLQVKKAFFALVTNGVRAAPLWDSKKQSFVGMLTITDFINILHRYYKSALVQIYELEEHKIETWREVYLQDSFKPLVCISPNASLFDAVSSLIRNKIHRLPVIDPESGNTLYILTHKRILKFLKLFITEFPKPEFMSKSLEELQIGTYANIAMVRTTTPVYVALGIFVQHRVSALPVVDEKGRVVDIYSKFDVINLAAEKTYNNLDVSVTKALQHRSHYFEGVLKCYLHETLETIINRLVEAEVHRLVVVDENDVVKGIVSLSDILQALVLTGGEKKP
From the text: The α1-KD was precipitated using anti-FLAG and endogenous AMPK complexes using anti-α1 antibody, and activity determined. Results (mean ± SD, n = 2) are expressed relative to activities in DMSO controls. (B) Western blots (n = 2) using the indicated antibodies; samples from experiment in (A). (C) DNAs encoding FLAG-tagged AMPK-α1 (WT or AT mutant) were expressed by transient transfection in HEK293 cells, the cells treated with increasing concentrations of SU6656 for 1 hr, AMPK complexes precipitated with anti-FLAG, and activity measured. Results (mean ± SD, n = 3) are expressed relative to the DMSO control. […] Results (mean ± SD, n = 3) are expressed relative to the DMSO control. **p < 0.01, ***p < 0.001, ****p < 0.0001, ^†††p < 0.001; ns, not significant.
To confirm that it acted by binding at the catalytic site, we expressed FLAG-tagged full-length AMPK-α1 either as the WT or the AT mutant.

[3] = target: α2 kinase domain (α2-KD, residues 1–310) (Homo sapiens, UniProt P54646); test: biochemical
Sequence of α2 kinase domain (α2-KD, residues 1–310) (P54646 1-310): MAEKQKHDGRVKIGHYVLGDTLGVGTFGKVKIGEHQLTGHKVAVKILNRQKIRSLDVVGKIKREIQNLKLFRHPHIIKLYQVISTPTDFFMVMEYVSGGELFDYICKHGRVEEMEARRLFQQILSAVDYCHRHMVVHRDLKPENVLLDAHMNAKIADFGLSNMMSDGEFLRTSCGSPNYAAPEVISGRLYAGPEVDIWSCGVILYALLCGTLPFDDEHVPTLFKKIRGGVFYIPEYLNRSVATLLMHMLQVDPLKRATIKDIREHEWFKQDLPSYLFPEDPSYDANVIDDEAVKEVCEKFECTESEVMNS

purified rat liver AMPK = test: Kinase assay of purified rat liver AMPK at 2 mM ATP; assay type: biochemical; conditions: ± 1 mM AMP
α2-KD A156T (AT) mutant = target: T2, α2-KD A156T (AT) mutant (Homo sapiens, UniProt P54646, A156T); test: Inhibition of phosphorylated α2 kinase domain, A156T (AT) mutant; assay type: biochemical
T2 construct: amplifying residues 1-310 with 5' BamH1 and 3' Xho1 sites; made in house; host or cells: bacteria
T2 sequence (P54646 1-310 A156T): as the sequence (P54646 1-310) above, with A156T counted along it

[4] = design: method as in Strumberg et al., 2007; conditions: human clinical trials; ref Strumberg et al., 2007; cited from earlier work

Row | AMPK activity (AMPK-α1 AT mutant) | IC50 [3] [nM] | Ki [3] [nM] | concentrations inhibiting both basal and AMP-stimulated activity (purified rat liver AMPK) | IC50 (α2-KD A156T (AT) mutant; AT mutant α2-KD phosphorylated using CaMKK2, read-out: IC50 for inhibition of catalytic activity) [nM] | fold less potent inhibition with AT mutant than WT (α2-KD A156T (AT) mutant; AT versus WT α2-KD) [fold] | Structure (SMILES) | AMPK activation and Thr172 phosphorylation (AMPK [1]) | AMPK activity / Thr172 phosphorylation (AMPK [2]) | peak plasma sorafenib [4] [µM]
1 | greatly reduced | 220 ± 20 | 170 | above 1 μM | 1700 ± 300 | ~10 | CN(C)S(=O)(=O)c1ccc2c(c1)/C(=C/c1cc3c([nH]1)CCCC3)C(=O)N2 [SU6656] | equally in cells expressing the WT, FF, or FFF mutants | still activated and increased Thr172 phosphorylation of AMPK | 
2 |  |  |  |  |  |  | CNC(=O)c1cc(Oc2ccc(NC(=O)Nc3ccc(Cl)c(C(F)(F)F)c3)cc2)ccn1 [sorafenib] |  |  | 6 to 20
